Data from patent US6670487B1, “Method for removing impurities from oxidation products” (General Electric Company, priority 2002, dated 2003).

What was measured:
[1] = Solvent extraction of aqueous crude chlorophthalic acid solution: distribution coefficient K and selectivity beta of chlorophthalides; type: physicochemical; parameters: key to K values: K = chlorophthalide mass fraction organic phase / aqueous phase; key to beta values: beta = (phthalide/acid wt fraction, organic) ÷ (same ratio, water)
Excerpt: In one embodiment the efficacy of a solvent extraction may be measured by the distribution coefficient, K, which is the mole fraction of specified solute in the organic solvent phase compared to the mole fraction of specified solute in the aqueous phase. In some particular embodiments an organic solvent is employed such that the value of the distribution coefficient, K, for phthalide in a product mixture comprising at least one phthalic acid is greater than 1. In other particular embodiments an organic solvent is employed such that the value of the distribution coefficient, K, for chlorophthalide in a product mixture comprising at least one chlorophthalic acid is greater than 1. In various particular embodiments an organic solvent is employed such that the value of the distribution coefficient, K, for chlorophthalide is in one embodiment in a range of between about 1.1 and about 5, and in another embodiment in a range of between about 1.1 and about 4. In a particular embodiment the distribution coefficient is measured for 4-chlorophthalide with water and various organic solvents such as toluene and xylene.
Another factor for measuring the efficacy of a solvent extraction is the selectivity factor, β, which compares the ratio of two components of interest in one phase to the ratio of the same two components in the other phase. In a particular embodiment the selectivity factor is measured for 4-chlorophthalide in relation to chlorophthalic acids in both water and organic solvent.
A 35 wt. % solution of crude chlorophthalic acid in water was prepared by adding appropriate amounts of 4- and 3-chlorophthalic anhydride (70/30 isomer ratio) along with a mixture of about 3 wt. % (based on crude chlorophthalic anhydride) of synthetic 4- and 7-chlorophthalide (produced by reduction of 3-chlorophthalic anhydride). […] A number of vials were prepared each containing 5 milliliters (ml.) of an aqueous phase comprising a certain concentration of crude chlorophthalic acid (5 wt. % to 35 wt. %, based on the weight of the entire aqueous phase and, optionally, acetic acid (0 wt. % to 36 wt. %, based on the weight of the entire aqueous phase). Each vial was then treated with 5 ml. of either toluene, o-dichlorobenzene (ODCB), or ortho-xylene. The vials were then shaken vigorously in a mechanical shaker for 50 minutes at a specified temperature (22° C., 42° C., or 60° C.). The phases were allowed to separate over several hours (actual phase separation occurred much quicker than this) and then each phase was sampled using a pipette. No stable emulsions were observed under the conditions which were examined. The organic phase was analyzed directly by GC (using biphenyl internal standard, following silylation of the product mixture), while for the aqueous phase, water was evaporated and solid residue was redissolved in organic solvent before GC analysis. The analytical data were used to calculate an equilibrium constant, K, which represented the ratio of chlorophthalides mass fraction in the organic phase to that in the aqueous phase. The analytical data were also used to calculate a selectivity constant, beta, which represented the quotient of [(wt. fraction of chlorophthalides in xylene)/(wt fraction of chlorophthalic acids in xylene)] divided by the quotient of [(wt fraction of chlorophthalides in water)/(wt fraction of chlorophthalic acids in water)]. The data in Table 1 show results of extractions performed at 22° C. with no acetic acid present.
The Procedure of Example 1 was repeated except that extractions were performed at 22 wt. % initial chlorophthalic acid concentration at 22° C. in the presence of different levels of acetic acid.
The procedure of Example 1 was repeated except that extractions were performed at different wt. % initial chlorophthalic acid concentration at 60° C. with no acetic acid present. […]

[2] = as above; type: physicochemical; parameters: key to K values: K = chlorophthalide mass fraction organic phase / aqueous phase; key to beta values: beta = (phthalide/acid wt fraction, organic) ÷ (same ratio, water); conditions: 22 wt.% chlorophthalic acid, 60° C.
[3] = ODCB/water, 9 wt.% acetic acid in initial aqueous phase, 22 wt.% chlorophthalic acid, 22° C.
[4] = ODCB/water, 10 wt.% acetic acid in initial aqueous phase, 22 wt.% chlorophthalic acid, 60° C.
[5] = ODCB/water, 12 wt.% chlorophthalic acid in aqueous phase, 22° C., no acetic acid
[6] = ODCB/water, 17 wt.% acetic acid in initial aqueous phase, 22 wt.% chlorophthalic acid, 22° C.
[7] = ODCB/water, 19 wt.% acetic acid in initial aqueous phase, 22 wt.% chlorophthalic acid, 60° C.
[8] = ODCB/water, 22 wt.% chlorophthalic acid in aqueous phase, 60° C., no acetic acid
[9] = ODCB/water, 23 wt.% chlorophthalic acid in aqueous phase, 22° C., no acetic acid
[10] = ODCB/water, 26 wt.% acetic acid in initial aqueous phase, 22 wt.% chlorophthalic acid, 22° C.
[11] = ODCB/water, 35 wt.% acetic acid in initial aqueous phase, 22 wt.% chlorophthalic acid, 22° C.
[12] = ODCB/water, 35 wt.% chlorophthalic acid in aqueous phase, 22° C., no acetic acid
[13] = ODCB/water, 35 wt.% chlorophthalic acid in aqueous phase, 60° C., no acetic acid
[14] = toluene/water, 12 wt.% chlorophthalic acid in aqueous phase, 22° C., no acetic acid
[15] = toluene/water, 17 wt.% acetic acid in initial aqueous phase, 22 wt.% chlorophthalic acid, 22° C.
[16] = toluene/water, 22 wt.% chlorophthalic acid in aqueous phase, 60° C., no acetic acid
[17] = toluene/water, 23 wt.% chlorophthalic acid in aqueous phase, 22° C., no acetic acid
[18] = toluene/water, 26 wt.% acetic acid in initial aqueous phase, 22 wt.% chlorophthalic acid, 22° C.
[19] = toluene/water, 35 wt.% chlorophthalic acid in aqueous phase, 22° C., no acetic acid
[20] = toluene/water, 35 wt.% chlorophthalic acid in aqueous phase, 60° C., no acetic acid
[21] = toluene/water, 36 wt.% acetic acid in initial aqueous phase, 22 wt.% chlorophthalic acid, 22° C.
[22] = xylene/water, 12 wt.% chlorophthalic acid in aqueous phase, 22° C., no acetic acid
[23] = xylene/water, 23 wt.% chlorophthalic acid in aqueous phase, 22° C., no acetic acid
[24] = xylene/water, 35 wt.% chlorophthalic acid in aqueous phase, 22° C., no acetic acid

4- and 7-chlorophthalide [chlorophthalides]
K values ([1]; ODCB/water, 5.5 wt.% chlorophthalic acid in aqueous phase, 22° C., no acetic acid): 1.1
beta values ([1]; ODCB/water, 5.5 wt.% chlorophthalic acid in aqueous phase, 22° C., no acetic acid, chlorophthalides vs chlorophthalic acids): 400
K values [1, 3]: 2.3
beta values [1, 3]: 200
K values [1, 4]: 3.1
beta values [1, 4]: 600
K values [1, 5]: 1.8
beta values [1, 5]: 800
K values [1, 6]: 2.2
beta values [1, 6]: 200
K values [1, 7]: 2.5
beta values [1, 7]: 300
K values [1, 8]: 2.8
beta values [1, 8]: 800
K values [1, 9]: 2.2
beta values [1, 9]: 300
K values [1, 10]: 1.9
beta values [1, 10]: 100
K values ([1]; ODCB/water, 29 wt.% acetic acid in initial aqueous phase, 22 wt.% chlorophthalic acid, 60° C.): 2.3
K values [1, 11]: 1.7
beta values [1, 11]: 100
K values [1, 12]: 1.4
beta values [1, 12]: 260
K values [1, 13]: 1.7
beta values [1, 13]: 800
beta values ([1]; ODCB/water, 37 wt.% acetic acid in initial aqueous phase, 22 wt.% chlorophthalic acid, 60° C.): 100
values for K ([1]; acetic acid 0-35 wt.% based on the weight of the water, 22 wt.% solids): 1.7-2.6
selectivity numbers for chlorophthalic acids and chlorophthalide ([1]; o-dichlorobenzene, chlorophthalic acids about 20 wt.%, chlorophthalide about 0.6%): ~500
selectivity numbers for chlorophthalic acids and chlorophthalide ([1]; toluene and xylene, chlorophthalic acids about 20 wt.%, chlorophthalide about 0.6%): 4000-5000
values of K ([1]; toluene, xylene and o-dichlorobenzene, chlorophthalic acids about 20 wt.%, chlorophthalide about 0.6%): 1.5-2.5
K values ([1]; toluene/water, 6 wt.% chlorophthalic acid in aqueous phase, 22° C., no acetic acid): 1.8
beta values ([1]; toluene/water, 6 wt.% chlorophthalic acid in aqueous phase, 22° C., no acetic acid, chlorophthalides vs chlorophthalic acids): 800
beta values ([1]; toluene/water, 10 wt.% acetic acid in initial aqueous phase, 22 wt.% chlorophthalic acid, 60° C.): 900
K values [1, 14]: 2.6
beta values [1, 14]: 2500
K values [1, 15]: 2.5
beta values [1, 15]: 400
K values ([1]; toluene/water, 19 wt.% acetic acid in initial aqueous phase, 22 wt.% chlorophthalic acid, 60° C.): 2.9
K values [1, 16]: 3.5
beta values [1, 16]: 1800
K values [1, 17]: 2.5
beta values [1, 17]: 3900
K values [1, 18]: 2.2
beta values [1, 18]: 150
K values ([1]; toluene/water, 29 wt.% acetic acid in initial aqueous phase, 22 wt.% chlorophthalic acid, 60° C.): 2.4
K values [1, 19]: 1.7
beta values [1, 19]: 3400
K values [1, 20]: 2.0
beta values [1, 20]: 1400
K values [1, 21]: 1.9
beta values [1, 21]: 100
beta values ([1]; toluene/water, 38 wt.% acetic acid in initial aqueous phase, 22 wt.% chlorophthalic acid, 60° C.): 50
selectivity numbers ([1]; toluene, 0 wt.% acetic acid, 22 wt.% solids): 4000
selectivity numbers ([1]; toluene, 18 wt.% acetic acid, 22 wt.% solids): about 400
K values [1, 22]: 2.5
beta values [1, 22]: 3500
K values [1, 23]: 1.8
beta values [1, 23]: 4700
K values [1, 24]: 1.3
beta values [1, 24]: 4200
beta values ([2]; ODCB/water, 29 wt.% acetic acid in initial aqueous phase): 150
K values ([2]; ODCB/water, 37 wt.% acetic acid in initial aqueous phase): 1.7
K values ([2]; toluene/water, 10 wt.% acetic acid in initial aqueous phase): 3.3
beta values ([2]; toluene/water, 19 wt.% acetic acid in initial aqueous phase): 300
beta values ([2]; toluene/water, 29 wt.% acetic acid in initial aqueous phase): 150
K values ([2]; toluene/water, 38 wt.% acetic acid in initial aqueous phase): 1.6
